Assay results from US9415034B2, “Inhibitors and enhancers of uridine diphosphate-glucuronosyltransferase 2B (UGT2B)” (NATIONAL DEFENSE MEDICAL CENTER, priority 2005, dated 2016).

Tested on: UGT2B
Test: in vitro
Procedure: In the following experiment, 27 different kinds of CHEs and 10 different excipients were used as UGT2B inhibitor in this invention. These CHEs are pure compounds available commercially, and were purchased from Sigma Chemical Co., Nacalai Tesque (Kyoto, Japan) and Indofine Chemical Co., Inc. (Somerville, N.J.). These UGT2B inhibitors are dissolved in alcohol at the concentration of 1, 10, 100 μM for the following experiment.
These excipients are dissolved in water and make up to 0.5%, 5%, 50% (wt %, w/v) for the following experiment. (Note: BRIJ is a registered trademark of ICI Americas, Inc.; Pluronic is a registered trademark of BASF Corporation.)
The Sprague-Dawley male rats, weighted 300-400 g are used as model animals in these experiments. The microsome is prepared as follows: • i. Sacrifice a rat after 12-16 hours fasting, take its liver; wipe dry the liver and weigh it. • ii. Add 300% (by volume) of cold 0.3M sucrose solution, and homogenize the liver. • iii. Centrifuge the homogenized liver suspension at 9000×g speed (KS-800, Kubota, made in Japan) for 10 min at 4° C. Collect the supernatant. • iv. Centrifuge the supernatant at 105,000×g speed (L8-60M, Beckman, made in USA) for 60 min at 4° C. • v. Remove the supernatant, add 0.3M sucrose (of the same volume) and repeat the homogenization. The homogenized liver suspension is the microsome. Store the microsome at −70° C.
Thaw the microsome before use. Add 5 μl/ml BRIJ®35 (Fisher et al. 2000, Drug Metabolism & Disposition. 28(5):560-6) into microsome by a ratio of microsome:BRIJ®35=8:1 (v/v).
The protein amount is determined as follows: • i. Take 0.1 ml microsome and dilute to 5 ml 0.85% NaCl (50-fold dilution, v/v). Take 0.2 ml of the diluted microsome and place it in a capped test tube (triple experiments). Separately, replacing microsome with 0.2 ml NaCl as the control. • ii. Add 2.2 ml Biuret regent (SIGMA, 690-A) into each test tube, mix well and store at room temperature for 10 min. • iii. Add 0.1 ml folin regent (SIGMA, 690-A), mix immediately, and store at room temperature for 30 min. Measure the absorbance at 550 nm wave length within the 30 min. Measure the concentration of protein in microsome based on the standard curve generated by various bovine albumin concentration and absorbance. 4. The Measurement of the Inhibition of UGT2B Activity in vitro • i. […] Mix solution (A) and 17 μl solution (B) thoroughly, place in a 37° C. water bath and shake at 125 rpm for 60 min. • iii. Add 1 ml ACN to interrupt the reaction. • iv. Centrifuge at 130,000×g speed at 4° C. for 5 min, and • v. […] 5.
Set the Ultra-violet detector's (SPD-10A, Shimadzu, Kyoto, made in Japan) wave length to 210 nm.
Those CHEs are commercially available pure compounds, acquired from Sigma Chemical Co., Nacalai Tesque (Kyoto, Japan) and […] (Somerville, N.J.). Their categories, names, sources, and chemical compositions are described in Table 5.

[1] = male, Sprague-Dawley, rat, % Inhibition (Mean ± SD)
[2] = male, Sprague-Dawley, rat, 60 min, 8.5 μM
[3] = male, Sprague-Dawley, rat, 60 min, 85 μM
[4] = male, Sprague-Dawley, rat, 60 min, 850 μM
[5] = male, Sprague-Dawley, rat, inhibition rate on the metabolism of nalbuphine in microsome
[6] = Table 2, inhibitor 8.5 μM, metabolism of nalbuphine in rat liver microsome
[7] = Table 2, inhibitor 85 μM, metabolism of nalbuphine in rat liver microsome
[8] = Table 2, inhibitor 850 μM, metabolism of nalbuphine in rat liver microsome
[9] = Table 6, enhancer 8.5 μM, negative = enhancement
[10] = Table 6, enhancer 85 μM, negative = enhancement
[11] = Table 6, enhancer 850 μM, negative = enhancement

inhibition at 60 min, 8.5 μM [1] [%] | inhibition at 60 min, 85 μM [1] [%] | inhibition at 60 min, 850 μM [1] [%] | inhibition at 60 min, 8.5 µM [1] [%] | inhibition at 60 min, 85 µM [1] [%] | inhibition at 60 min, 850 µM [1] [%] | Compound | further results
-68.4 ± 7.34 | -54.8 ± 9.38 | -65.3 ± 47 |  |  |  | Oc1cc(O)c2c(c1)OC(c1ccc(O)c(O)c1)[C@@H](O)C2 (single isomer, unassigned; (+)) [(+)-catechin, (+)-Catechin] | 
-26.7 ± 13.1 | 54 ± 15.8 | -16.1 ± 17.9 | -26.7 ± 13.1 | 54 ± 15.8 | -16.1 ± 17.9 | O=c1cc(-c2ccc(O)cc2)oc2cc(O)cc(O)c12 [apigenin, Apigenin] | 
-99.6 ± 12.8 | -125 ± 8.62 |  |  |  |  | O=c1cc(-c2ccccc2)oc2cc(O)c(O)c(O)c12 [baicalein] | inhibition at 60 min, 212.5 μM [1]: -146 ± 8.47%
 |  |  | 111 ± 21.8 | 105 ± 21.8 | 105 ± 19.3 | COc1c(O)cc2oc(Oc3ccc(O)cc3)cc(=O)c2c1O [capillarisin, Capillarisin] | inhibition at 60 min [5]: 111%
-128 ± 20.8 | -138 ± 4.62 |  |  |  |  | O=c1c(-c2ccc(O)cc2)coc2cc(O)ccc12 [daidzein, Daidzein] | inhibition at 60 min, 425 μM [1]: -138 ± 2.31%
-1.06 ± 3.71 | -17.1 ± 2.3 | 14.1 ± 2.88 | -1.06 ± 3.71 | -17.1 ± 2.3 | 14.1 ± 2.88 | O=C1CC(c2ccc(O)c(O)c2)Oc2cc(O)cc(O)c21 (centres unmarked) [eriodictyol, Eriodictyol] | inhibition at 60 min [5]: ≥ 30%
-86.5 ± 3.49 | -31.5 ± 4.78 | -24.7 ± 4.42 |  |  |  | COc1ccc(-c2coc3cc(O)ccc3c2=O)cc1 [formononetin, Formononetin] | 
 |  |  | 15.8 ± 4.42 | 8.05 ± 3.02 | 12.2 ± 4.08 | O=C(O)c1cc(O)c(O)c(O)c1 [gallic acid, Gallic Acid] | 
-27 ± 4.51 | -77.7 ± 20.7 | -43.2 ± 18.8 |  |  |  | COc1cc(O)c2c(=O)cc(-c3ccc(O)cc3)oc2c1 [genkwanin] | 
51.7 ± 21.7 | -59.1 ± 18.9 | -124 ± 49.4 | 51.7 ± 21.7 | -59.1 ± 18.9 | -124 ± 49.4 | COc1ccc(C2CC(=O)c3c(O)cc(O)cc3O2)cc1O (centres unmarked) [hesperetin, Hesperetin] | inhibition at 60 min [5]: ≥ 30%
2.16 ± 2.73 | -32 ± 10.3 | -42 ± 4.25 |  |  |  | COc1ccc([C@@H]2CC(=O)c3c(O)cc(O[C@@H]4O[C@H](CO[C@@H]5O[C@@H](C)[C@H](O)[C@@H](O)[C@H]5O)[C@@H](O)[C@H](O)[C@H]4O)cc3O2)cc1O [hesperidin, Hesperidin] | 

More lines, now with the values behind:

Compound | inhibition at 60 min, 8.5 μM [1] [%] | inhibition at 60 min, 85 μM [1] [%] | inhibition at 60 min, 850 μM [1] [%] | inhibition at 60 min, 8.5 µM [1] [%] | inhibition at 60 min, 85 µM [1] [%] | inhibition at 60 min, 850 µM [1] [%] | further results
Oc1cc(O)c2c(c1)OC(c1ccc(O)c(O)c1)[C@@H](O)C2 (single isomer, unassigned; (+)) [(+)-epicatechin, (+)-Epicatechin] |  |  |  |  |  |  | % Inhibition (Mean ± SD) [2]: −32.553 ± 1.578%; % Inhibition (Mean ± SD) [3]: −47.075 ± 0.533%; % Inhibition (Mean ± SD) [4]: −8.118 ± 1.256%
C=C(C)C1CC=C(C)CC1 (single isomer, unassigned; (+)) [(+)-limonene, (+)-Limonene] |  |  |  | 18.3 ± 0.793 | 45.3 ± 7.84 | 44.2 ± 2.28 | inhibition at 60 min [5]: ≥ 30%
Oc1cc(O)c2c(c1)OC(c1ccc(O)c(O)c1)[C@@H](O)C2 (single isomer, unassigned; (-)) [(−)-epicatechin, (−)-Epicatechin] |  |  |  |  |  |  | % Inhibition (Mean ± SD) [2]: −28.68 ± 17.634%; % Inhibition (Mean ± SD) [3]: −23.53 ± 27.304%; % Inhibition (Mean ± SD) [4]: −48.35 ± 39.354%
CC(=O)OCCCc1ccccc1 [3-phenylpropyl acetate, 3-Phenylpropyl Acetate] | -26.3 ± 27.3 | 17.3 ± 5.84 | 2.39 ± 22.5 | -26.3 ± 27.3 | 17.3 ± 5.84 | 2.39 ± 22.5 | 
O=C(O)[C@H]1O[C@@H](Oc2cc3oc(-c4ccccc4)cc(=O)c3c(O)c2O)[C@H](O)[C@@H](O)[C@@H]1O [baicalin] |  |  |  |  |  |  | % Inhibition (Mean ± SD) [6]: 36.298 ± 9.403%; % Inhibition (Mean ± SD) [7]: 46.253 ± 22.923%; % Inhibition (Mean ± SD) [8]: 44.262 ± 2.879%
CC12CCC(CC1)C(C)(C)O2 [cineole, Cineole] | -8.41 ± 18.6 | -12.1 ± 6.68 | 58.9 ± 8.56 | -8.41 ± 18.6 | -12.1 ± 6.68 | 58.9 ± 8.56 | 
O=c1c(-c2ccc(O)cc2)coc2cc(O[C@@H]3O[C@H](CO)[C@@H](O)[C@H](O)[C@H]3O)ccc12 [daidzin, Daidzin] |  |  |  |  |  |  | inhibition at 60 min, 8.5 μM (male, Sprague-Dawley, rat): -29.5 ± 22%; inhibition at 60 min, 85 μM (male, Sprague-Dawley, rat): -41.5 ± 17%; inhibition at 60 min, 850 μM (male, Sprague-Dawley, rat): -61 ± 21.1%
CC(C)[C@@H](C)/C=C/[C@@H](C)[C@H]1CC[C@H]2C3=CC=C4C[C@@H](O)CC[C@]4(C)[C@H]3CC[C@]12C [ergosterol, Ergosterol] |  |  |  |  |  |  | inhibition at 60 min, 8.5 μM (male, Sprague-Dawley, rat, liver microsomes, probe nalbuphine, % Inhibition (Mean ± SD), Table 6, enhancer 8.5 μM, negative = enhancement): -12.5 ± 28.9%; inhibition at 60 min, 85 μM (male, Sprague-Dawley, rat, liver microsomes, probe nalbuphine, % Inhibition (Mean ± SD), Table 6, enhancer 85 μM, negative = enhancement): -28.3 ± 20.3%; inhibition at 60 min, 850 μM (male, Sprague-Dawley, rat, liver microsomes, probe nalbuphine, % Inhibition (Mean ± SD), Table 6, enhancer 850 μM, negative = enhancement): -34.6 ± 19.9%
CCCCCCCCCCCCCC(=O)OCC [ethyl myristate, Ethyl Myristate] | -27.8 ± 14.7 | -12.1 ± 5.71 | 6.33 ± 1.48 | -27.8 ± 14.7 | -12.1 ± 5.71 | 6.33 ± 1.48 | 
O=c1c(-c2ccc(O)cc2)coc2cc(O)cc(O)c12 [genistein, Genistein] |  |  |  |  |  |  | inhibition at 60 min, 8.5 µM (male, Sprague-Dawley, rat): 15.6 ± 6.05%; inhibition at 60 min, 8.5 μM (male, Sprague-Dawley, rat): 15.6 ± 6.05%; inhibition at 60 min, 85 µM (male, Sprague-Dawley, rat): 5.73 ± 6.41%; inhibition at 60 min, 85 μM (male, Sprague-Dawley, rat): 5.73 ± 6.41%; inhibition at 60 min, 850 µM (male, Sprague-Dawley, rat): -9.2 ± 5.18%; inhibition at 60 min, 850 μM (male, Sprague-Dawley, rat): -9.2 ± 5.18%
CC1(C)[C@@H](O[C@H]2O[C@H](C(=O)O)[C@@H](O)[C@H](O)[C@H]2O[C@@H]2O[C@H](C(=O)O)[C@@H](O)[C@H](O)[C@H]2O)CC[C@]2(C)[C@H]3C(=O)C=C4[C@@H]5C[C@@](C)(C(=O)O)CC[C@]5(C)CC[C@@]4(C)[C@]3(C)CC[C@@H]12 [glycyrrhizin, Glycyrrhizin] | 9.93 ± 6.66 | -20.3 ± 3.67 | -5.65 ± 6.62 | 9.93 ± 6.66 | -20.3 ± 3.67 | -5.65 ± 6.62 | 
O=c1cc(-c2ccc(O)c(O)c2)oc2cc(O)c([C@@H]3O[C@H](CO)[C@@H](O)[C@H](O)[C@H]3O)c(O)c12 [homoorientin, Homoorientin] |  |  |  |  |  |  | % Inhibition (Mean ± SD) [9]: −128.53 ± 27.613%; % Inhibition (Mean ± SD) [10]: −127.21 ± 28.005%; % Inhibition (Mean ± SD) [11]: −133.17 ± 26.968%
O=c1c(O[C@@H]2O[C@H](CO)[C@@H](O)[C@H](O)[C@H]2O)c(-c2ccc(O)c(O)c2)oc2cc(O)cc(O)c12 [isoquercitrin, Isoquercitrin] |  |  |  |  |  |  | % Inhibition (Mean ± SD) [9]: −8.089 ± 2.404%; % Inhibition (Mean ± SD) [10]: −19.119 ± 21.887%; % Inhibition (Mean ± SD) [11]: −71.696 ± 20.468%
COc1cc(-c2oc3cc(O)cc(O)c3c(=O)c2O)ccc1O [isorhamnetin, Isorhamnetin] |  |  |  |  |  |  | inhibition at 60 min (male, Sprague-Dawley, rat): ≥ 30%; inhibition at 60 min, 8.5 µM (male, Sprague-Dawley, rat): 88.4 ± 11.6%; inhibition at 60 min, 85 µM (male, Sprague-Dawley, rat): 85.1 ± 14.7%; inhibition at 60 min, 850 µM (male, Sprague-Dawley, rat): 107 ± 8.1%
O=c1cc(-c2ccc(O)cc2)oc2cc(O)c([C@@H]3O[C@H](CO)[C@@H](O)[C@H](O)[C@H]3O)c(O)c12 [isovitexin, Isovitexin] |  |  |  |  |  |  | % Inhibition (Mean ± SD) [6]: 29.821 ± 9.786%; % Inhibition (Mean ± SD) [7]: −5.528 ± 9.096%; % Inhibition (Mean ± SD) [8]: −12.377 ± 8.912%; % Inhibition (Mean ± SD) [9]: 29.821 ± 9.786%; % Inhibition (Mean ± SD) [10]: −5.528 ± 9.096%; % Inhibition (Mean ± SD) [11]: −12.377 ± 8.912%
